Laboratory results from US7824661B2, “Technetium- and rhenium-bis(heteroaryl) complexes, and methods of use thereof” (priority 2002, dated 2010).

Assays:
[1] = Whole body biodistribution studies in rats; type: in vivo, Rats (Sprague Dawley, male)
Procedure: The animal care and use procedures were in accordance with the Guide for the Care and Use of Laboratory Animals and the Animal Welfare Act. The vertebrate animals in this research project were used to investigate the biodistribution and pharmacokinetics of the rotenone derivatives and determine uptake in the heart. Rats (Sprague Dawley, male, at 80-100 grams each) were used for the whole body biodistribution studies. The Tc-complexes, as well as Cardiolite™, were evaluated at three time points; 5, 30, and 120 minutes, with five animals per time point. In order to provide accurate statistics in the clearance rate measurements and to account for intra-species variation it was necessary to use this number of animals. The product was diluted to ˜10 μCi/100 μl using freshly prepared 10% ethanol/saline (0.9%) solution. The rats were injected via a lateral tail vein with a volume of 0.1 mL. The rats were sacrificed by decapitation, with immediate blood collection at the desired time points. Whole body biodistributions were performed on the animals immediately following decapitation, organ and tissue samples were taken and washed of excess blood, blotted dry and weighed. Radioactivity was assayed using automated Nal well counter. All tissue samples were counted together along with an aliquot of the injected dose so that % injected dose and % injected dose per gram of tissue could be calculated. […]

[2] = type: physicochemical
Procedure: The stability and robustness of the technetium-di(pyridine) complexes was assessed using challenges with free cysteine and histidine. Specifically, the experiments were performed using [^99mTc(CO)3(dipyridinemethylamine)]^+1.
This approach enables the creation of libraries containing the {M(CO)31}^1+ core. We have begun to define the biological fate of the ^99mTc-dipyridine complexes, allowing us to compare a series of future tridentate analogs. The dipyridine labeling proceeded in high yield and was stable to excess histidine and cysteine challenges for more than 18 hours. […] Activity decreased in all tissues as a function of time, except in the GI tract, which increased with time.
[^99mTc(CO)3(H2O)3]^+ was heated with [{N,N-di(pyridyl-2-methyl)}N-butyl-phthalimide in 0.5 mL (1 mg/mL) of methanol at 100° C. for 60 minutes. […] The product eluted with methanol at 20.8 minutes. The HPLC analysis was performed using a Supelco C18 column, 25 cm×4.6 mm column (5 μm pore size), equipped with 2 cm guard using solvent A=0.05 M triethylammonium phosphate buffer pH 2.5 and solvent B=methanol. The method employed was a gradient 5-95% B, 1 mL/minute for 30 minutes. The gradient ramped from 5-95 from 3-20 minutes.

Substance	blood clearance, % ID/g ([1]; at 5 minutes)	blood clearance, % ID/g ([1]; by 30 minutes)	stability and robustness in challenges with free cysteine and histidine [2]	change in the components by HPLC analysis ([2]; aqueous solution of the complex incubated with cysteine for 18 hours at 37° C. at pH 7.4)
[^99mTc(CO)3(DpK)]	0.6 % ID/g	0.07 % ID/g		
[^99mTc(CO)3(dipyridinemethylamine)]^+1			stable	no significant change
